Patent US20220142164A1, “HERBICIDAL COMPOUNDS” (SYNGENTA CROP PROTECTION AG, priority 2019, published 2022)

Legend:
Test in all cases: Post-emergence efficacy, glasshouse pot test
Type in all cases: in vivo
Conditions in all cases: 312 h, post-emergence spray, Application Rate 500 g/Ha, evaluated after 13 days, 100=total damage to plant, 0=no damage to plant
[1] = system: Amaranthus palmeri (AMAPA)
Description: (§1) Seeds of a variety of test species were sown in standard soil in pots. After cultivation for 14 days (post-emergence) under controlled conditions in a glasshouse (at 24/16° C., day/night; 14 hours light; 65% humidity), the plants were sprayed with an aqueous spray solution derived from the dissolution of the technical active ingredient formula (I) in a small amount of acetone and a special solvent and emulsifier mixture referred to as IF50 (11.12% Emulsogen EL360 TM+44.44% N-methylpyrrolidone+44.44% Dowanol DPM glycol ether), to create a 50 g/I solution which was then diluted to required concentration using 0.25% or 1% Empicol ESC70 (Sodium lauryl ether sulphate)+1% ammonium sulphate as diluent. The test plants were then grown in a glasshouse under controlled conditions (at 24/16° C., day/night; 14 hours light; 65% humidity) and watered twice daily. After 13 days the test was evaluated (100=total damage to plant; 0=no damage to plant). Ipomoea hederacea (IPOHE), Euphorbia heterophylla (EPHHL), Chenopodium album (CHEAL), Amaranthus palmeri (AMAPA), Lolium perenne (LOLPE), Digitaria sanguinalis (DIGSA), Eleusine indica (ELEIN), Echinochloa crus-galli (ECHCG), Setaria faberi (SETFA)

[2] = system: Chenopodium album (CHEAL)
Description: as §1

[3] = system: Digitaria sanguinalis (DIGSA)
Description: as §1

[4] = system: Echinochloa crus-galli (ECHCG)
Description: as §1

Eleusine indica (ELEIN) = system: Eleusine indica (ELEIN)
Description: as §1

[5] = system: Euphorbia heterophylla (EPHHL)
Description: as §1

[6] = system: Ipomoea hederacea (IPOHE)
Description: as §1

Lolium perenne (LOLPE) = system: Lolium perenne (LOLPE)
Description: as §1

Setaria faberi (SETFA) = system: Setaria faberi (SETFA)
Description: as §1

| SMILES | pest or weed control at 500 g/ha [1] | pest or weed control at 500 g/ha [2] | pest or weed control at 500 g/ha [3] | pest or weed control at 500 g/ha [4] | pest or weed control at 500 g/ha (Eleusine indica (ELEIN)) | pest or weed control at 500 g/ha [5] | pest or weed control at 500 g/ha [6] | pest or weed control at 500 g/ha (Lolium perenne (LOLPE)) | pest or weed control at 500 g/ha (Setaria faberi (SETFA)) |
| --- | --- | --- | --- | --- | --- | --- | --- | --- | --- |
| COC(=O)CN(C)C(=O)C[n+]1ccc(-c2ncns2)cc1 [Compound A1] | 0% | 10% | 0% | 0% | 10% | 10% | 10% | 10% | 0% |
| COC(=O)CCNC(=O)C[n+]1ccc(-c2ncns2)cc1 [Compound A2, methyl 3-[[-2-[4-(1,2,4-thiadiazol-5-yl)pyridin-1-ium-1-yl]acetyl]amino]propanoate bromide] | 80% | 90% | 40% | 20% | 30% | 40% | 50% | 10% | 50% |
| O=C(O)CNC(=O)C[n+]1ccc(-c2ncns2)cc1 [Compound A3, 2-[[2-[4-(1,2,4-thiadiazol-5-yl)pyridin-1-ium-1-yl]acetyl]amino]acetic acid chloride] | 90% | 90% | 100% | 100% | 100% | 100% | 100% | 70% | 100% |
| O=C(O)CCNC(=O)C[n+]1ccc(-c2ncns2)cc1 [Compound A4, 3-[[2-[4-(1,2,4-thiadiazol-5-yl)pyridin-1-ium-1-yl]acetyl]amino]propanoic Acid Chloride] | 90% | 90% | 100% | 70% | 100% | 90% | 90% | 90% | 70% |
| COC(=O)CNC(=O)C[n+]1ccc(-c2ncns2)cc1 [Compound A5, methyl 2-[[2-[4-(1,2,4-thiadiazol-5-yl)pyridin-1-ium-1-yl]acetyl]amino]acetate bromide] | 90% | 90% | 100% | 90% | 100% | 80% | 80% | 30% | 60% |
| CN(CC(=O)O)C(=O)C[n+]1ccc(-c2ncns2)cc1 [Compound A6] | 100% | 90% | 90% | 60% | 20% | 90% | 40% | 40% | 40% |
| CC(NC(=O)C[n+]1ccc(-c2ncns2)cc1)C(=O)O (stereo not drawn) [Compound A7] | 100% | 90% | 100% | 100% | 100% | 100% | 100% | 80% | 100% |
| COC(=O)C(C)NC(=O)C[n+]1ccc(-c2ncns2)cc1 (stereo not drawn) [Compound A8] | 100% | 90% | 100% | 100% | 100% | 100% | 100% | 60% | 100% |
